# Experimental data as given in patent US20090286713A9, “Collagen Receptor I-Domain Binding Modulators” (Biotie Therapies Corporation, priority 2005, published 2009).
# pEC50: −log10 of the molar value.
# Assays:
# [1] = target: T1, CHO cells expressing α2β1 integrin (Homo sapiens, UniProt P17301); experiment: Cell adhesion assay, CHO-α2 cells on collagen type I; assay type: cell-based, Chinese Hamster; conditions: FIG. 10A, 10B
# T1 sequence (P17301 1-1181): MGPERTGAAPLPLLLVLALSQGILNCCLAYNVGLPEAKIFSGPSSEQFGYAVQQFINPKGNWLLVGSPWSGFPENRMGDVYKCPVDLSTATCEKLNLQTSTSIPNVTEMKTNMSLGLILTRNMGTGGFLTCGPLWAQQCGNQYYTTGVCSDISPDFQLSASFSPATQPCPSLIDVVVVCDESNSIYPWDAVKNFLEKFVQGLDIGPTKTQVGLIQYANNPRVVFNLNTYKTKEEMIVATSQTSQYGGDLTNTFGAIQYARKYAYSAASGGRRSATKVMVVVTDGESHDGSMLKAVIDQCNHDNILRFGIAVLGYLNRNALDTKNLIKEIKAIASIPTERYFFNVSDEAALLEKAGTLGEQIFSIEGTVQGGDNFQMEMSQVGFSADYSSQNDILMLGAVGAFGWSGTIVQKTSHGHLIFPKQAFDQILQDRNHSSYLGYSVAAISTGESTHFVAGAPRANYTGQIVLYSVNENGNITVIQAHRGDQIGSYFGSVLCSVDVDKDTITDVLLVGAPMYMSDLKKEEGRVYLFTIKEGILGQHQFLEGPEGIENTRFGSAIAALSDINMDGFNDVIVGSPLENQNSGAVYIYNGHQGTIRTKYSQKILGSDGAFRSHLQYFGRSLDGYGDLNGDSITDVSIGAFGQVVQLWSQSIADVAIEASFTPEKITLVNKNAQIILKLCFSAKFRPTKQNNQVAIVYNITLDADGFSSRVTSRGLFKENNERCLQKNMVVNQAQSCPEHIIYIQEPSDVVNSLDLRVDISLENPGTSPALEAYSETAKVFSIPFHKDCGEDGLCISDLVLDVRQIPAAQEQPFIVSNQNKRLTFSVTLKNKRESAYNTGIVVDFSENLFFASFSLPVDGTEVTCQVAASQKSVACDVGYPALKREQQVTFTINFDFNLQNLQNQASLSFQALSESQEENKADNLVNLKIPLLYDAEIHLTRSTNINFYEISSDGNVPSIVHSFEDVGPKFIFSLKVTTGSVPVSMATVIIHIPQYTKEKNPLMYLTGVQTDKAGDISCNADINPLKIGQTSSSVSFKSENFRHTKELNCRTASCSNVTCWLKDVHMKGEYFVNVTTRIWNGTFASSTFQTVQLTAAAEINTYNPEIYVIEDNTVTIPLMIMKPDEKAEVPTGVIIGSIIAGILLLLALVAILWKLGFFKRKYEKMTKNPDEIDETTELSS
# Experimental: (§1) Chinese Hamster Ovary (CHO) cell clone expressing wild type α2 integrin was used in cell adhesion assay. Cells were suspended in serum free medium containing 0.1 mg/ml cycloheximide (Sigma) and the compounds were preincubated with the cells prior to transfer to the wells. Cells (150000/well) were allowed to attach on collagen type I coated wells (in the presence and absence of inhibitor compounds) for 2 h at +37° C. and after that non-adherent cells were removed. Fresh serum free medium was added and the living cells were detected using a cell viability kit (Roche) according to the manufacturers protocol.
# (§2) For this purpose CHO cells were transfected to express α2β1 integrin on their surface as their only collagen receptor.
# [2] = target: T2, CHO cells expressing α2β1 integrin (Homo sapiens, UniProt P05556+P17301); experiment: as above; assay type: cell-based, Chinese Hamster; conditions: CHO cells expressing α2β1; FIG. 10A; read-out: EC50 of cell adhesion to type I collagen
# T2 sequence (P17301 1-1181): T1 sequence (P17301 1-1181)
# Experimental: as §1, §2
smiles,measurement,setting,value
"COC(=O)c1c(C(C)C)cc(O)c2c(O)c3c(c(O)c12)C(=O)c1cccc(O)c1C3=O [Compound L3009, methyl 4,5,7,12-tetrahydroxy-2-methylethyl)-6,11-dioxonaphthacenecarboxylate]",inhibition of cell adhesion to collagen type I (in words),[1],potent inhibitor
same,pEC50,[2],~4.70
